Assay results published in PubChem BioAssay (NCI).
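A five-concentration, 48-hour dose response in 96-well plates underlies each endpoint, interpolated linearly between surrounding concentrations. TGI is the concentration that stops growth completely.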

Legend:
Experiment in all cases: NCI tumour cell line growth inhibition, 48 h
SK-OV-3 ovarian = system: SK-OV-3 ovarian
MDA-MB-231 breast = system: MDA-MB-231 breast
SF-268 CNS = system: SF-268 CNS
COLO 205 colon = system: COLO 205 colon
OVCAR-5 ovarian = system: OVCAR-5 ovarian
NCI/ADR-RES ovarian = system: NCI/ADR-RES ovarian
HL-60(TB) leukemia = system: HL-60(TB) leukemia
HCT-116 colon = system: HCT-116 colon
HS 578T breast = system: HS 578T breast
SK-MEL-28 melanoma = system: SK-MEL-28 melanoma
UO-31 renal = system: UO-31 renal
LOX IMVI melanoma = system: LOX IMVI melanoma
MDA-N = system: MDA-N
RXF 393 renal = system: RXF 393 renal
RPMI-8226 leukemia = system: RPMI-8226 leukemia
HCT-15 colon = system: HCT-15 colon
HOP-92 NSCLC = system: HOP-92 NSCLC
CAKI-1 renal = system: CAKI-1 renal
PC-3 prostate = system: PC-3 prostate
OVCAR-3 ovarian = system: OVCAR-3 ovarian
CCRF-CEM leukemia = system: CCRF-CEM leukemia
HCC-2998 colon = system: HCC-2998 colon
SNB-19 CNS = system: SNB-19 CNS
SK-MEL-5 melanoma = system: SK-MEL-5 melanoma
U251 CNS = system: U251 CNS
OVCAR-4 ovarian = system: OVCAR-4 ovarian
A549 NSCLC = system: A549 NSCLC
EKVX NSCLC = system: EKVX NSCLC
UACC-257 melanoma = system: UACC-257 melanoma
TK-10 renal = system: TK-10 renal
DU-145 prostate = system: DU-145 prostate
MOLT-4 leukemia = system: MOLT-4 leukemia
NCI-H460 lung = system: NCI-H460 lung
MCF7 breast = system: MCF7 breast
SF-539 CNS = system: SF-539 CNS
UACC-62 melanoma = system: UACC-62 melanoma
HT29 colon = system: HT29 colon
BT-549 breast = system: BT-549 breast
T-47D breast = system: T-47D breast
NCI-H522 lung = system: NCI-H522 lung
K-562 leukemia = system: K-562 leukemia
786-0 renal = system: 786-0 renal
HOP-62 NSCLC = system: HOP-62 NSCLC
MDA-MB-435 = system: MDA-MB-435
SW-620 colon = system: SW-620 colon
NCI-H226 lung = system: NCI-H226 lung
A498 renal = system: A498 renal
NCI-H23 lung = system: NCI-H23 lung
SF-295 CNS = system: SF-295 CNS
M14 melanoma = system: M14 melanoma
MALME-3M melanoma = system: MALME-3M melanoma
IGROV1 ovarian = system: IGROV1 ovarian
SR leukemia = system: SR leukemia
ACHN renal = system: ACHN renal
OVCAR-8 ovarian = system: OVCAR-8 ovarian
SN12C renal = system: SN12C renal
KM12 colon = system: KM12 colon
SK-MEL-2 melanoma = system: SK-MEL-2 melanoma
SNB-75 CNS = system: SNB-75 CNS

Compound: Cn1ncc(NCCn2cnc3c2c(=O)n(C)c(=O)n3C)c(Cl)c1=O
- TGI (SK-OV-3 ovarian): > 100 µM
- TGI (MDA-MB-231 breast): > 100 µM
- TGI (SF-268 CNS): > 100 µM
- TGI (COLO 205 colon): > 100 µM
- TGI (OVCAR-5 ovarian): > 100 µM
- TGI (NCI/ADR-RES ovarian): > 100 µM
- TGI (HL-60(TB) leukemia): > 100 µM
- TGI (HCT-116 colon): > 100 µM
- TGI (HS 578T breast): > 100 µM
- TGI (SK-MEL-28 melanoma): > 100 µM
- TGI (UO-31 renal): > 100 µM
- TGI (LOX IMVI melanoma): > 100 µM
- TGI (MDA-N): > 100 µM
- TGI (RXF 393 renal): > 100 µM
- TGI (RPMI-8226 leukemia): > 100 µM
- TGI (HCT-15 colon): > 100 µM
- TGI (HOP-92 NSCLC): > 100 µM
- TGI (CAKI-1 renal): > 100 µM
- TGI (PC-3 prostate): > 100 µM
- TGI (OVCAR-3 ovarian): > 100 µM
- TGI (CCRF-CEM leukemia): > 100 µM
- TGI (HCC-2998 colon): > 100 µM
- TGI (SNB-19 CNS): > 100 µM
- TGI (SK-MEL-5 melanoma): > 100 µM
- TGI (U251 CNS): > 100 µM
- TGI (OVCAR-4 ovarian): > 100 µM
- TGI (A549 NSCLC): > 100 µM
- TGI (EKVX NSCLC): > 100 µM
- TGI (UACC-257 melanoma): > 100 µM
- TGI (TK-10 renal): > 100 µM
- TGI (DU-145 prostate): > 100 µM
- TGI (MOLT-4 leukemia): > 100 µM
- TGI (NCI-H460 lung): > 100 µM
- TGI (MCF7 breast): > 100 µM
- TGI (SF-539 CNS): > 100 µM
- TGI (UACC-62 melanoma): > 100 µM
- TGI (HT29 colon): > 100 µM
- TGI (BT-549 breast): > 100 µM
- TGI (T-47D breast): > 100 µM
- TGI (NCI-H522 lung): > 100 µM
- TGI (K-562 leukemia): > 100 µM
- TGI (786-0 renal): > 100 µM
- TGI (HOP-62 NSCLC): > 100 µM
- TGI (MDA-MB-435): > 100 µM
- TGI (SW-620 colon): > 100 µM
- TGI (NCI-H226 lung): > 100 µM
- TGI (A498 renal): > 100 µM
- TGI (NCI-H23 lung): > 100 µM
- TGI (SF-295 CNS): > 100 µM
- TGI (M14 melanoma): > 100 µM
- TGI (MALME-3M melanoma): > 100 µM
- TGI (IGROV1 ovarian): > 100 µM
- TGI (SR leukemia): > 100 µM
- TGI (ACHN renal): > 100 µM
- TGI (OVCAR-8 ovarian): > 100 µM
- TGI (SN12C renal): > 100 µM
- TGI (KM12 colon): > 100 µM
- TGI (SK-MEL-2 melanoma): > 100 µM

Compound: O=S(=O)(Cc1nc2ccccc2s1)c1nc2ccccc2s1
- TGI (SNB-75 CNS): 41.3 µM
- TGI (SK-OV-3 ovarian): > 100 µM
- TGI (MDA-MB-231 breast): 34 µM
- TGI (SF-268 CNS): 42.2 µM
- TGI (COLO 205 colon): 33.4 µM
- TGI (OVCAR-5 ovarian): 39.4 µM
- TGI (NCI/ADR-RES ovarian): > 100 µM
- TGI (HL-60(TB) leukemia): 24.2 µM
- TGI (HCT-116 colon): 27 µM
- TGI (HS 578T breast): 79.3 µM
- TGI (SK-MEL-28 melanoma): 30.5 µM
- TGI (UO-31 renal): 31.4 µM
- TGI (LOX IMVI melanoma): 25.6 µM
- TGI (MDA-N): 39.5 µM
- TGI (RXF 393 renal): 59.6 µM
- TGI (RPMI-8226 leukemia): 37 µM
- TGI (HCT-15 colon): 32 µM
- TGI (HOP-92 NSCLC): 28.1 µM
- TGI (PC-3 prostate): 32.6 µM
- TGI (OVCAR-3 ovarian): 28.1 µM
- TGI (CCRF-CEM leukemia): 23.7 µM
- TGI (HCC-2998 colon): 30.2 µM
- TGI (SNB-19 CNS): 44 µM
- TGI (SK-MEL-5 melanoma): 25.6 µM
- TGI (U251 CNS): 34.9 µM
- TGI (OVCAR-4 ovarian): 31.4 µM
- TGI (A549 NSCLC): 95 µM
- TGI (EKVX NSCLC): 46.2 µM
- TGI (UACC-257 melanoma): 41.8 µM
- TGI (TK-10 renal): 35.7 µM
- TGI (DU-145 prostate): 32 µM
- TGI (MOLT-4 leukemia): 39.9 µM
- TGI (NCI-H460 lung): > 100 µM
- TGI (MCF7 breast): 37.1 µM
- TGI (SF-539 CNS): 43.7 µM
- TGI (UACC-62 melanoma): 44.2 µM
- TGI (HT29 colon): 37.5 µM
- TGI (BT-549 breast): 34.1 µM
- TGI (T-47D breast): 53.6 µM
- TGI (NCI-H522 lung): 33.9 µM
- TGI (K-562 leukemia): 32.2 µM
- TGI (786-0 renal): 34.1 µM
- TGI (HOP-62 NSCLC): > 100 µM
- TGI (MDA-MB-435): 34.4 µM
- TGI (SW-620 colon): 34.6 µM
- TGI (NCI-H226 lung): 65.6 µM
- TGI (A498 renal): 38.6 µM
- TGI (NCI-H23 lung): 38.9 µM
- TGI (SF-295 CNS): 64.2 µM
- TGI (M14 melanoma): 30.5 µM
- TGI (MALME-3M melanoma): 24.9 µM
- TGI (IGROV1 ovarian): 39.6 µM
- TGI (SR leukemia): 21 µM
- TGI (ACHN renal): 33 µM
- TGI (OVCAR-8 ovarian): 55.7 µM
- TGI (SN12C renal): 35.2 µM
- TGI (KM12 colon): 35.4 µM
- TGI (SK-MEL-2 melanoma): 37.7 µM

Compound: COC(O)C(=O)c1c2c(cc3c1CCC3)CCCC2 (stereo not drawn)
- TGI (SNB-75 CNS): 26 µM
- TGI (SK-OV-3 ovarian): 24.6 µM
- TGI (MDA-MB-231 breast): 27.6 µM
- TGI (SF-268 CNS): 45.5 µM
- TGI (COLO 205 colon): 19.3 µM
- TGI (OVCAR-5 ovarian): 36.7 µM
- TGI (NCI/ADR-RES ovarian): 61.5 µM
- TGI (HL-60(TB) leukemia): 4.31 µM
- TGI (HCT-116 colon): 4.6 µM
- TGI (HS 578T breast): 36.2 µM
- TGI (SK-MEL-28 melanoma): 26.4 µM
- TGI (UO-31 renal): 31.5 µM
- TGI (LOX IMVI melanoma): 4.95 µM
- TGI (MDA-N): 30.4 µM
- TGI (RPMI-8226 leukemia): 5.63 µM
- TGI (HCT-15 colon): 13.8 µM
- TGI (CAKI-1 renal): 28.3 µM
- TGI (PC-3 prostate): 11 µM
- TGI (OVCAR-3 ovarian): 14.5 µM
- TGI (CCRF-CEM leukemia): 6.69 µM
- TGI (HCC-2998 colon): 4.28 µM
- TGI (SNB-19 CNS): 32.8 µM
- TGI (SK-MEL-5 melanoma): 9.47 µM
- TGI (U251 CNS): 27.8 µM
- TGI (OVCAR-4 ovarian): 17.5 µM
- TGI (A549 NSCLC): 40.9 µM
- TGI (EKVX NSCLC): 31.1 µM
- TGI (UACC-257 melanoma): 25.9 µM
- TGI (TK-10 renal): 29.9 µM
- TGI (DU-145 prostate): 30.5 µM
- TGI (MOLT-4 leukemia): 14.2 µM
- TGI (NCI-H460 lung): 19.7 µM
- TGI (MCF7 breast): 18 µM
- TGI (SF-539 CNS): 16.6 µM
- TGI (UACC-62 melanoma): 12.3 µM
- TGI (HT29 colon): 12.9 µM
- TGI (BT-549 breast): 6.41 µM
- TGI (T-47D breast): 44.2 µM
- TGI (NCI-H522 lung): 13.2 µM
- TGI (K-562 leukemia): 12.7 µM
- TGI (786-0 renal): 27.8 µM
- TGI (HOP-62 NSCLC): 33.3 µM
- TGI (MDA-MB-435): 36.7 µM
- TGI (SW-620 colon): 12.3 µM
- TGI (NCI-H226 lung): 38 µM
- TGI (A498 renal): 18 µM
- TGI (NCI-H23 lung): 31.7 µM
- TGI (SF-295 CNS): 26 µM
- TGI (M14 melanoma): 24.9 µM
- TGI (MALME-3M melanoma): 27.8 µM
- TGI (IGROV1 ovarian): 14 µM
- TGI (SR leukemia): 13.9 µM
- TGI (ACHN renal): 21 µM
- TGI (OVCAR-8 ovarian): 25.4 µM
- TGI (SN12C renal): 19.5 µM
- TGI (KM12 colon): 34.1 µM
- TGI (SK-MEL-2 melanoma): 30.2 µM
